Earlier results, collected in US10028917B2, “Beclomethasone dipropionate compositions in modified-release gastro-resistant microspheres and process for obtaining them” (SOFAR SPA, priority 2010, dated 2018).

Conditions: relative to hydrocortisone

## CCC(=O)OCC(=O)[C@@]1(OC(=O)CC)[C@@H](C)C[C@H]2[C@@H]3CCC4=CC(=O)C=C[C@]4(C)[C@@]3(Cl)[C@@H](O)C[C@@]21C [BDP, Beclomethasone dipropionate]
  times more powerful than hydrocortisone: 500 times
